ChEMBL document CHEMBL1201862, “PubChem BioAssay data set” (2004)
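Dose response: 5 concentrations. Exposure: 48 h. Format: 96-well plates. Endpoint: linear interpolation; highest concentration if not reached. The concentration for 50% growth inhibition is given as GI50.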 Activity calls are given as the source filed them. Rule as the data show it: active = GI50 up to about 1.1 µM and inactive = higher.

What was measured:
Test in all cases: NCI-60 cell line screen, 48 h
HT-29 = tested on: HT-29
M14 = tested on: M14
SF-268 = tested on: SF-268
SK-OV-3 = tested on: SK-OV-3
RXF 393 = tested on: RXF 393
NCI-H460 = tested on: NCI-H460
RPMI-8226 = tested on: RPMI-8226
SNB-19 = tested on: SNB-19
SK-MEL-28 = tested on: SK-MEL-28
IGROV-1 = tested on: IGROV-1
CCRF-CEM = tested on: CCRF-CEM
ACHN = tested on: ACHN
HL-60 = tested on: HL-60
EKVX = tested on: EKVX
OVCAR-4 = tested on: OVCAR-4
UACC-257 = tested on: UACC-257
HCT-15 = tested on: HCT-15
SNB-75 = tested on: SNB-75
A498 = tested on: A498
OVCAR-5 = tested on: OVCAR-5

CN(C)C(=S)/N=c1\ssc(=S)n1C was tested. Which GI50 (HT-29) did it give?
The GI50 was > 100 µM (inactive).

And the GI50 (M14)?
The GI50 was > 100 µM (inactive).

And the GI50 (SF-268)?
The GI50 was > 100 µM (inactive).

And the GI50 (SK-OV-3)?
The GI50 was > 100 µM (inactive).

What about the GI50 (RXF 393) of the same compound?
The GI50 was > 100 µM (inactive).

And the GI50 (NCI-H460)?
The GI50 was > 100 µM (inactive).

And the GI50 (RPMI-8226)?
The GI50 was > 100 µM (inactive).

And the GI50 (SNB-19)?
The GI50 was > 100 µM (inactive).

What about the GI50 (SK-MEL-28) of the same compound?
The GI50 was > 100 µM (inactive).

What about the GI50 (IGROV-1) of the same compound?
Its GI50 is > 100 µM (inactive).

And the GI50 (CCRF-CEM)?
The GI50 was > 100 µM (inactive).

What about the GI50 (ACHN) of the same compound?
The GI50 was > 100 µM (inactive).

And the GI50 (HL-60)?
The GI50 was > 100 µM (inactive).

What about the GI50 (EKVX) of the same compound?
The GI50 was > 100 µM (inactive).

What about the GI50 (OVCAR-4) of the same compound?
Its GI50 is > 100 µM (inactive).

And the GI50 (UACC-257)?
Its GI50 is > 100 µM (inactive).

And the GI50 (HCT-15)?
Its GI50 is > 100 µM.

What about the GI50 (SNB-75) of the same compound?
Its GI50 is > 100 µM (inactive).

And the GI50 (A498)?
The GI50 was > 100 µM (inactive).

What about the GI50 (OVCAR-5) of the same compound?
Its GI50 is > 100 µM (inactive).
